Experimental data from patent US20170273922A1, “UREA AND BIS-UREA BASED COMPOUNDS AND ANALOGUES THEREOF USEFUL IN THE TREATMENT OF ANDROGEN RECEPTOR MEDIATED DISEASES OR DISORDERS” (THE ROYAL INSTITUTION FOR THE ADVACEMENT OF LEARNING/MCGILL …, priority 2014, published 2017).
“Also recorded” adds a separate entry of the source.

Key:
IRF3DBD-AR(1-547) = biological target: T1, IRF3DBD-AR(1-547) (Homo sapiens, UniProt P10275); experiment: IRF3DBD-AR(1-547) ISRE-luc reporter assay; format: cell-based; conditions: 24 h; for inhibition of IRF3DBD-AR(1-547)-mediated ISRE-luc activation: HEK293 cells; for inhibition of IRF3-AR(1-547)-dependent ISRE-luc reporter activity: PC3 cells
T1 construct: IRF3-AR(1-547) is the fusion of IRF3 DBD with the AR NTD (1-547); expressed in transfected cells
T1 sequence (P10275 1-547): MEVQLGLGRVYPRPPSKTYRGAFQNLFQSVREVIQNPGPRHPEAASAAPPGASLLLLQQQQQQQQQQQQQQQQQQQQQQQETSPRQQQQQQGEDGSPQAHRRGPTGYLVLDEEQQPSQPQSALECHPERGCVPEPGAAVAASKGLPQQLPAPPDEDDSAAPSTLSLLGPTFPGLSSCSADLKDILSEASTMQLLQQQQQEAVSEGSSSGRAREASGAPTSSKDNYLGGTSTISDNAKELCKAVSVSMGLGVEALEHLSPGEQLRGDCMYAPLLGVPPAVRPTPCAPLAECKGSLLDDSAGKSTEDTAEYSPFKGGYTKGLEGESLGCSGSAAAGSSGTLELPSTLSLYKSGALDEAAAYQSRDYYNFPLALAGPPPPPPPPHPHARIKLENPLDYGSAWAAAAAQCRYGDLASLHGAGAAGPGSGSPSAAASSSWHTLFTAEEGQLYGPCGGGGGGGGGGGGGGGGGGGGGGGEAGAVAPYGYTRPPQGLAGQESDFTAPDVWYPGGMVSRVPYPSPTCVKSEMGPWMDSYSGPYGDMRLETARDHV

AR-v7 = biological target: T2, AR-v7 (Homo sapiens, UniProt P10275); experiment: AR-v7-dependent PSA-luc reporter assay in HEK293 cells; conditions: for potency relative to EPI-001 at 25 μM in suppressing constitutive activation of wild-type AR-v7: compounds at 2.5 μM
T2 sequence (P10275 1-644 isoform P10275-3): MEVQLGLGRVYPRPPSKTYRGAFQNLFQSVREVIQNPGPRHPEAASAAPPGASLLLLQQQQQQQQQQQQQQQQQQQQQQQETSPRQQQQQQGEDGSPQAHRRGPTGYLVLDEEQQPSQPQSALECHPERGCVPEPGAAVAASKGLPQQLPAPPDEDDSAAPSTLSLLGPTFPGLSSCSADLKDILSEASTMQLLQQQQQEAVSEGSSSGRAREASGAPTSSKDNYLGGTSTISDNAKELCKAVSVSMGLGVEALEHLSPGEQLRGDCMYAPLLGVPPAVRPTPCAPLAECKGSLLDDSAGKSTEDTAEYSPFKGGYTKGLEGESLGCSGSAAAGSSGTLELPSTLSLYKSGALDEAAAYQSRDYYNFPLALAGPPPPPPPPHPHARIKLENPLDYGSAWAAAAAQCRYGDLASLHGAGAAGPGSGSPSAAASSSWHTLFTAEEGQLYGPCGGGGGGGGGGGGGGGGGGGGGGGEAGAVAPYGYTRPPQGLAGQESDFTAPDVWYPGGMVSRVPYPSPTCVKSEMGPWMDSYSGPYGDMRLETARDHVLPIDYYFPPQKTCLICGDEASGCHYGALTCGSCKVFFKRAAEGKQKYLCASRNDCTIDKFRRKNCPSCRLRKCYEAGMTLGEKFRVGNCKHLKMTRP
Method: Cells were exposed to vehicle control or compounds at designated concentrations (μM) for 48 h.

DU145 cells = experiment: MTT assay (cytotoxicity), DU145 cells; format: cell-based; conditions: DU145 cells, 72 h, Table 4.2
How it was run: (§1)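 Seed 6-7×10^3 cells/well; incubate overnight; replace with fresh RPMI 1640 + 10% FBS containing compound or DMSO; incubate 72 h; measure viable cells by MTT.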

22Rv1 cells = experiment: MTT assay (cytotoxicity), 22Rv1 cells; format: cell-based; conditions: 22Rv1 cells, 72 h, Table 4.2
How it was run: as §1

[1] = biological target: T3, glucocorticoid receptor (GR) (Homo sapiens, UniProt P04150); experiment: GR MMTV-luc reporter assay in PC3 cells; format: cell-based; set-up: interference with transcriptional activity of GR: dose or concentration left out as unconfirmed; conditions: for effect on GR transcriptional activation induced by DEX (MMTV-luc): 10 nM DEX, 24 h; for agonism of GR (MMTV-luc): absence of DEX
T3 construct: PC3 cells express endogenous GR; endogenous in cells; host or cells: PC3
T3 sequence (P04150 1-777): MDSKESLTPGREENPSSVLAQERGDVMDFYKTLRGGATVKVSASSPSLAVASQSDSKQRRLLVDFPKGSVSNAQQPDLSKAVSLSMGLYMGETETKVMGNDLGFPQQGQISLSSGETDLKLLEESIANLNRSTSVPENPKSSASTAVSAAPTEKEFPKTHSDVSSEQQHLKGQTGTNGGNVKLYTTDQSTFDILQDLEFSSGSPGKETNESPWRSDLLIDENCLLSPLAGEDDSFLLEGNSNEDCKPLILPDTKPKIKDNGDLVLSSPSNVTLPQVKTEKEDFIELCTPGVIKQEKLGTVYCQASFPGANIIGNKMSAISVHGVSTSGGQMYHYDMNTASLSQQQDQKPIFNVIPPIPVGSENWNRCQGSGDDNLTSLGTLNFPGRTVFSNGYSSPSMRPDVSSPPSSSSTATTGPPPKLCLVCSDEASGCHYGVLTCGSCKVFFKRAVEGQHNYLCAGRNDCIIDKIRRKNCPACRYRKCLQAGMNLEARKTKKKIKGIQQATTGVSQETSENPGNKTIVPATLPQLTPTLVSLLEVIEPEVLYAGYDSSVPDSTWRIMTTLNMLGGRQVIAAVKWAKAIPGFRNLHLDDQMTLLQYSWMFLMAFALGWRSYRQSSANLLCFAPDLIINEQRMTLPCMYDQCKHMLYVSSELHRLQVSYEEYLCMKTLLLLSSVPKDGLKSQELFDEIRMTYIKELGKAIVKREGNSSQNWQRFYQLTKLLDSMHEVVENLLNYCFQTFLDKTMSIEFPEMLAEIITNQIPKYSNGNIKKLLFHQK
From the text: A) PC3 cells express endogenous GR. MMTV-Luc and pRL-TK were transiently co-transfected into PC3 cells.
AR and GR are close homology proteins and both of them belong to steroid receptor family. […] MMTV-luc reporter and pRL-TK plasmids were transiently co-transfected into PC3 cells, which endogenously express GR. […] DEX is an agonist of the GR.

Row | Compound | inhibition of IRF3DBD-AR(1-547)-mediated ISRE-luc activation (IRF3DBD-AR(1-547)) | inhibition of constitutive activation of AR-v7 (PSA-luc) (AR-v7; 24 h) | IC50 (DU145 cells) | IC50 (22Rv1 cells) | effect on GR transcriptional activation induced by DEX (MMTV-luc) ([1]; PC3 cells) | suppression of GR transactivation induced by 10 nM DEX ([1]; 5 μM, PC3 cells) | agonism of GR (MMTV-luc) ([1]; 5 μM) | agonism of GR (MMTV-luc) ([1]; PC3 cells) | inhibition of IRF3-AR(1-547)-dependent ISRE-luc reporter activity (IRF3DBD-AR(1-547)) | inhibition of constitutive activation of AR-v7 (PSA-luc) (AR-v7; 2.5 μM) | potency relative to EPI-001 at 25 μM in suppressing constitutive activation of wild-type AR-v7 (AR-v7) | interference with transcriptional activity of GR [1]
1 | O=C(Nc1cccc(C(F)(F)F)c1)Nc1ccc([N+](=O)[O-])c(C(F)(F)F)c1 [Compound 442] | suppressed | inhibited | 1.5 µM | 1.5 µM | inactive | inactive | non-agonist | non-agonist |  |  |  | 
2 | N#Cc1ccc(NC(=O)Nc2cccc(C(F)(F)F)c2)cc1C(F)(F)F [Compound 467] | suppressed | inhibited | 1.6 µM | 1.7 µM | inactive | inactive | non-agonist | non-agonist |  |  |  | 
3 | N#Cc1ccc(NC(=O)Nc2cccc(C(F)(F)F)c2)cc1Cl [Compound 492] |  | inhibited | 5.1 µM | 1.9 µM | inactive | inactive | non-agonist |  |  |  |  | 
4 | O=C(N/C=C/c1cccc(C(F)(F)F)c1)Nc1ccncn1 [Compound 562] | targeting the AR-NTD; also recorded: target the AR-NTD | dose-dependently inhibit |  |  | do not interfere; also recorded: selective towards the AR |  |  |  | potently inhibit | inhibit | more potent than EPI-001 at 25 μM | do not interfere
5 | O=C(Nc1ccc(Br)nc1)Nc1cc(C(F)(F)F)cc(C(F)(F)F)c1 [Compound 566] | targeting the AR-NTD; also recorded: target the AR-NTD |  |  |  | do not interfere |  |  |  |  | inhibit | more potent than EPI-001 at 25 μM | do not interfere
6 | O=C(Nc1cccc(C(F)(F)F)c1)Nc1ccc(NC(=O)c2ccccc2F)c(C(F)(F)F)c1 [Compound 746] | targeting the AR-NTD; also recorded: target the AR-NTD | dose-dependently inhibit |  |  | do not interfere; also recorded: selective towards the AR |  |  |  | potently inhibit | inhibit |  | do not interfere
